The subject of one data set is Rice bakanae disease. Kind of data set: In vitro fungicidal activity, PDA colony diameter. The data set is classed as cell-based. As to conditions: read-out: Fungicidal activity (%) Rice bakanae disease.
Another data set relates to Cucumber fusarium wilt. As to the kind of experiment: In vitro fungicidal activity, PDA colony diameter. In kind it is cell-based. As to conditions: 96 h, 50 mg/kg, inhibition of colony diameter, read-out: Fungicidal activity (%) Cucumber fusarium wilt.
The subject of data set [1] is bean aphides (Aphis laburni Kaltenbach). Kind of data set: Test of insecticidal activity against aphides (leaf immersion, checked after 96 h).
Experimental: The insecticidal activity against aphides is tested through the following steps: the tested aphides are bean aphides (Aphis laburni Kaltenbach), a normal colony fed with broad bean leaves in a laboratory. The pesticide is weighed, 1 mL DMF is added to dissolve the pesticide, then two drops of emulsifier, Tween-20 are added, and distilled water is added in an appropriate amount; the mixture is stirred to a homogeneous state to prepare pesticide solution at required concentration (see the following table for the specific concentration). […] In a control group, only emulsifier and solvent are added into distilled water, and the mixture is stirred to a homogeneous state.
Another data set relates to Armyworms. Kind of data set: Test of insecticidal activity against armyworms (leaf immersion). As to conditions: 600 mg/kg, 3-4 days.
In a further data set the test system is Wheat head blight. Kind of data set: whole plant or invertebrate. In kind it is cell-based. As to conditions: Triticum aestivum, read-out: Fungicidal activity (%) Wheat head blight.
Data set [2] deals with mosquito larvae (Culer pipiens pallens). Kind of data set: Test of insecticidal activity against mosquito larvae (checked after 24 h).
The subject of data set [3] is Corn southern leaf blight. As to the kind of experiment: In vitro fungicidal activity, PDA colony diameter. In kind it is cell-based. As to conditions: 50 mg/kg, inhibition of colony diameter; read-out: Fungicidal activity (%) Corn southern leaf blight.
For data set [4], the system named is Cercospora brown spot of peanut. As to the kind of experiment: In vitro fungicidal activity, PDA colony diameter. In kind it is cell-based. The settings on record: 96 h, 50 mg/kg, inhibition of colony diameter, read-out: Fungicidal activity (%) Cercospora brown spot of peanut.
Another data set concerns Watermelon anthracnose. Kind of data set: In vitro fungicidal activity, PDA colony diameter. The data set is classed as cell-based. The settings on record: read-out: Fungicidal activity (%) Watermelon anthracnose.
For another data set, the system named is Maize borers. Kind of data set: Test of insecticidal activity against maize borers (leaf immersion). As to conditions: read-out: Mortalities (%) Maize borers.
The next data set deals with Potato late blight. Kind of data set: microbe, parasite or virus in culture. The settings on record: Phytophthora infestans, 96 h, read-out: Fungicidal activity (%) Potato late blight. The data set is classed as cell-based.
A further data set concerns Sclerotinia rot of colza. Kind of data set: In vitro fungicidal activity, PDA colony diameter. The data set is classed as cell-based. As to conditions: 96 h, 50 mg/kg, inhibition of colony diameter, read-out: Fungicidal activity (%) Sclerotinia rot of colza.
The subject of a further data set is Cotton bollworms. As to the kind of experiment: Test of insecticidal activity against cotton bollworms (pesticide mixed into feedstuff). As to conditions: read-out: Mortalities (%) Cotton bollworms.
The subject of data set [5] is Capsicum phytophthora blight. Kind of data set: In vitro fungicidal activity, PDA colony diameter. As to conditions: 96 h. The data set is classed as cell-based. Here is the method: (§1) Here, the test is described in an example of Alternaria solani; it can be replaced by other fungi.
(§2) In vitro testing method: Alternaria solani is inoculated to a PDA culture medium and cultured for 7 days, a fungus dish with a diameter of […] is prepared on the periphery of the colony with a punch and inoculated to a PDA culture medium that contains pesticide at a concentration of 50 mg/kg and a PDA culture medium that doesn't contain the pesticide, and are cultured for 4 days respectively; then, the colony diameters are measured, and the inhibition percentages of the pesticides are calculated by comparing with the control sample.

The next data set concerns Apple ring rot. Kind of data set: In vitro fungicidal activity, PDA colony diameter. In kind it is cell-based. As to conditions: inhibition of colony diameter. Here is the method:
as §1, §2

The next data set relates to Wheat sheath blight. Kind of data set: In vitro fungicidal activity, PDA colony diameter. The data set is classed as cell-based. As to conditions: 50 mg/kg, inhibition of colony diameter; read-out: Fungicidal activity (%) Wheat sheath blight.
The subject of another data set is Tomato early blight. Kind of data set: In vitro fungicidal activity, PDA colony diameter. In kind it is cell-based, Alternaria solani. The settings on record: 50 mg/kg, inhibition of colony diameter; read-out: Fungicidal activity (%) Tomato early blight.
A further data set relates to Rice sheath blight. Kind of data set: In vitro fungicidal activity, PDA colony diameter. In kind it is cell-based. The settings on record: 50 mg/kg, inhibition of colony diameter; read-out: Fungicidal activity (%) Rice sheath blight.
Setting [6] is: 50 mg/kg, inhibition of colony diameter.
Where [7] appears, read: Aphis, 96 h, read-out: Mortalities (%) against aphides.
The mark [8] stands for this setting: 24 h, read-out: Mortalities (%) against mosquito larvae.

Read-outs that look alike come from different tables or passages of the source.

Experimental for Cotton bollworms: Method of testing against cotton bollworms: the pesticide is mixed into the feedstuff, i.e., 3 mL prepared solution is added into about 27 g freshly prepared feedstuff; thus, required concentration is obtained by diluting by 10 times.

For the compound `CC(=O)Nc1ccc(S(=O)(=O)NN2CC(C)=NNC2=O)cc1` [Ia-24, N-(4-(N-(6-methyl-3-oxo-2,3-dihydro-1,2,4-triazin-4(5H)-yl)sulfamyl)phenyl)acetamide], the inhibition at 50 mg/kg with Rice bakanae disease (setting [6]) was determined as 27.8%; in the data set with Wheat head blight, 6.7%; in data set [3] it was 25%; with Watermelon anthracnose (setting [6]) it was 12.5%; in the data set with Apple ring rot, 13.8%; with Wheat sheath blight it was 52.3%. Further, the inhibition at 50 mg/kg in the data set on Tomato early blight turned out to be 23.8%; in the data set on Rice sheath blight it was 50.8%. Besides, the inhibition of growth at 50 mg/kg in the data set on Cucumber fusarium wilt came to 0%; in data set [4] it was 15.8%; in the data set with Potato late blight, 22.2%; in the data set with Sclerotinia rot of colza, 40%; in data set [5] it was 24.5%. Further, the mortality at 5 mg/kg in data set [1] (setting [7]) was determined as 10%; in data set [2] (setting [8]), 45%. The mortality at 10 mg/kg was determined as 75% in [1] (setting [7]) and 100% in [2] (setting [8]). For the same compound, in data set [1] (setting [7]), the mortality at 100 mg/kg came to 95%. Also, the mortality at 600 mg/kg in data set [1] (setting [7]) turned out to be 100%; in the data set with Maize borers, 5%; with Cotton bollworms, 50%. For the same compound, in the data set on Armyworms, the “Mortalities (%) Armyworms” value is given as 5%.

For the compound `CC1=NNC(=O)N(NS(=O)(=O)c2cn(C)c(C)n2)C1` [Ia-32, 1,2-dimethyl-N-(6-methyl-3-oxo-2,3-dihydro-1,2,4-triazin-4(5H)-yl)-1H-imidazolyl-4-sulfonamide], the inhibition at 50 mg/kg in the data set on Rice bakanae disease came out at 18.8%; in the data set on Wheat head blight it was 12.5%; in [3], 7.7%; in the data set with Watermelon anthracnose, 18.8%; in the data set with Apple ring rot it was 43.1%; with Wheat sheath blight, 30.9%. The figures for the inhibition at 50 mg/kg with Tomato early blight and in the data set with Rice sheath blight were 16.1% and 10.5%, respectively. The inhibition of growth at 50 mg/kg in the data set with Cucumber fusarium wilt amounted to 8.8%; in [4], 26.1%; in the data set on Potato late blight it was 18.8%; in the data set with Sclerotinia rot of colza it was 15.8%; in data set [5], 9.4%. In addition, the mortality at 10 mg/kg in [1] (setting [7]) stood at 30%; in [2] (setting [8]) it was 20%. The mortality at 100 mg/kg in data set [1] (setting [7]) is 100%. Also, the mortality at 600 mg/kg in data set [1] (setting [7]) is 100%; with Maize borers, 0%; in the data set on Cotton bollworms it was 0%. Further, in the data set on Armyworms, the “Mortalities (%) Armyworms” value was 5%.

`CC1=NNC(=O)N(NS(=O)(=O)c2cccs2)C1` [Ia-28, N-(6-methyl-3-oxo-2,3-dihydro-1,2,4-triazin-4(5H)-yl)-thienyl-2-sulfonamide]: the inhibition at 50 mg/kg with Rice bakanae disease (setting [6]) is 17.2%; with Wheat head blight, 8.1%; in [3], 18.7%; with Watermelon anthracnose (setting [6]) it was 0%; in the data set on Apple ring rot, 0%; in the data set with Wheat sheath blight, 8.7%. In addition, the inhibition at 50 mg/kg with Tomato early blight turned out to be 23.9%; with Rice sheath blight, 17.4%. Further, the inhibition of growth at 50 mg/kg in the data set on Cucumber fusarium wilt was found to be 0%; in data set [4] it was 12%; in the data set on Potato late blight it was 0%; in the data set with Sclerotinia rot of colza, 15.8%; in [5], 25%. The results for the mortality at 10 mg/kg in data set [1] (setting [7]) and in data set [2] (setting [8]) were 65% and 100%, respectively. Also, in [1] (setting [7]), the mortality at 100 mg/kg was determined as 100%. The mortality at 600 mg/kg in [1] (setting [7]) was 100%; with Maize borers it was 5%; in the data set on Cotton bollworms, 10%. The “Mortalities (%) Armyworms” value in the data set on Armyworms was 5%. The mortality at 5 mg/kg in data set [2] (setting [8]) worked out at 20%.

On to `CC1=NNC(=O)N(NS(=O)(=O)c2cccc(C)c2)C1` [Ia-11, 3-methyl-N-(6-methyl-3-oxo-2,3-dihydro-1,2,4-triazin-4(5H)-yl)-benzenesulfonamide], for which the inhibition at 50 mg/kg in the data set on Rice bakanae disease (setting [6]) turned out to be 10.3%; in the data set on Wheat head blight it was 2.7%; in data set [3], 18.7%; in the data set with Watermelon anthracnose (setting [6]) it was 36.1%; with Apple ring rot, 6.8%; with Wheat sheath blight it was 14.3%. For the same compound, the results for the inhibition at 50 mg/kg in the data set on Tomato early blight and in the data set with Rice sheath blight were 1.5% and 16.3%, respectively. Besides, the inhibition of growth at 50 mg/kg in the data set with Cucumber fusarium wilt came to 8.8%; in data set [4], 8%; with Potato late blight it was 9.3%; in the data set with Sclerotinia rot of colza, 26.3%; in data set [5], 27.8%. In addition, the mortality at 2.5 mg/kg in data set [1] (setting [7]) stood at 15%. Also, the mortality at 5 mg/kg in data set [1] (setting [7]) was determined as 80%; in data set [2] (setting [8]), 100%. Besides, the mortality at 10 mg/kg in data set [1] (setting [7]) and in data set [2] (setting [8]) was 100% each time. Further, the mortality at 100 mg/kg in data set [1] (setting [7]) stood at 100%. The mortality at 600 mg/kg in data set [1] (setting [7]) turned out to be 100%; with Maize borers, 15%; with Cotton bollworms, 20%. For the same compound, the “Mortalities (%) Armyworms” value with Armyworms is listed as 20%. For the same compound, the mortality at 2 mg/kg in data set [2] (setting [8]) is 20%.

As to `CC1=NNC(=O)N(NS(=O)(=O)c2ccc(C(F)(F)F)cc2)C1` [Ia-26, N-(6-methyl-3-oxo-2,3-dihydro-1,2,4-triazin-4(5H)-yl)-4-(trifluoromethyl)-benzenesulfonamide], the inhibition at 50 mg/kg was found to be 17.2% with Rice bakanae disease (setting [6]); 13.5% in the data set with Wheat head blight; 6.3% in [3]; 34.4% with Watermelon anthracnose (setting [6]); 23% in the data set with Apple ring rot; 0% with Wheat sheath blight. In addition, the inhibition at 50 mg/kg in the data set on Tomato early blight was 13.4%; in the data set with Rice sheath blight, 20.9%. The inhibition of growth at 50 mg/kg in the data set with Cucumber fusarium wilt came out at 2.9%; in data set [4] it was 12%; with Potato late blight it was 34.3%; in the data set on Sclerotinia rot of colza, 15.8%; in data set [5] it was 27.8%. Also, in data set [1] (5 mg/kg), the “insecticidal activity against aphides compared with pymetrozine” value is “equivalent to the insecticidal activity of pymetrozine”. The mortality at 5 mg/kg in data set [1] (setting [7]) came out at 30%; in data set [2] (setting [8]), 100%. The mortality at 10 mg/kg in data set [1] (setting [7]) and in data set [2] (setting [8]) was 100% throughout. Further, the mortality at 100 mg/kg in data set [1] (setting [7]) was found to be 100%. The figures for the mortality at 600 mg/kg (in data set [1] (setting [7]); in the data set with Maize borers; with Cotton bollworms) were 100%, 40% and 0%, respectively. Besides, in the data set on Armyworms, the “Mortalities (%) Armyworms” value is on record as 45%. Besides, the mortality at 1 mg/kg in data set [2] (setting [8]) worked out at 20%. For the same compound, in data set [2] (setting [8]), the mortality at 2 mg/kg is 100%. In data set [2] (in vivo), the “insecticidal activity against mosquito larvae” value is “relatively high insecticidal activity”.

For `CC1=NNC(=O)N(N(S(=O)(=O)c2cccnc2)S(=O)(=O)c2cccnc2)C1` [Ib-9, N-(6-methyl-3-oxo-2,3-dihydro-1,2,4-triazin-4(5H)-yl)-N-(pyrid-3-yl-sulfonyl)pyridyl-3-sulfonamide], the inhibition at 50 mg/kg worked out at 0% in the data set on Rice bakanae disease (setting [6]); 21.2% with Wheat head blight; 5.6% in [3]; 3.1% in the data set with Watermelon anthracnose (setting [6]); 21.4% in the data set on Apple ring rot; 15.1% in the data set with Wheat sheath blight. Further, the inhibition at 50 mg/kg in the data set with Tomato early blight came out at 25%; with Rice sheath blight, 26.8%. In addition, the inhibition of growth at 50 mg/kg in the data set with Cucumber fusarium wilt was 7.7%; in data set [4], 19.2%; with Potato late blight, 14.3%; in the data set with Sclerotinia rot of colza, 12.5%; in [5] it was 11.5%. The mortality at 10 mg/kg in data set [1] (setting [7]) was determined as 20%; in data set [2] (setting [8]), 10%. In addition, the mortality at 100 mg/kg in data set [1] (setting [7]) stood at 80%. Also, the mortality at 600 mg/kg was 95% in data set [1] (setting [7]), 10% in the data set on Maize borers and 5% in the data set with Cotton bollworms. In addition, the “Mortalities (%) Armyworms” value with Armyworms worked out at 15%.

Values taken from patent US11203577B2, “Sulfonyl-structure-containing triazinone derivatives, their preparation methods and their uses in insect killing and/or bacterium killing” (Nankai University, priority 2017, dated 2021).
